From patent publication US20040033251A1, “Active agent delivery system including a polyurethane, medical device, and method” (Medtronic, Inc., priority 2002, published 2004)

Columns and labels:
[1] = Dissolution of coumarin from PL75D/TP blend cap-coated shims in PBS; format: physicochemical; details: PL75D/TP cap coats over TL/coumarin base coat, 37° C., FIG. 8
Description: PL75D was dried at 70° C. at reduced pressure overnight. The dried pellets were compressed between two plates that were pre-heated to 230° C. and maintained for about 5 minutes. After the sample was cooled down to room temperature, it was placed in a vial filled with THF and stirred until dissolved (by visual observation). TP and TL were directly dissolved in THF by stirring the mixtures at room temperature. Coumarin was also dissolved in THF. The concentrations of all the solutions were about 1 wt-%. TL solution and coumarin solution were mixed at a weigh ratio of 1:1. This mixture is the base coating solution of a reservoir system. TP solution and PL75D solution were mixed at various weight ratios to make five different mixtures with the weight ratios of TP to PL75D being 100:0, 75:25, 50:50, 25:75, and 0:100. […]
Dissolution of coumarin from the cap-coated shims was conducted by placing the coated shims in glass vials that contained phosphate buffered saline solution (PBS, potassium phosphate monobasic (NF tested), 0.144 grams per liter (g/L), sodium chloride (USP tested), 9 g/L, and sodium phosphate dibasic (USP tested) 0.795 g/L, pH=7.0 to 7.2 at 37° C., purchased from HyClone, Logan, Utah). […] The concentration of coumarin in all these solutions was measured with a liquid chromatography (HP 1090) that was equipped with a UV detector. […]

[2] = Merck Index 13 edit.; cited from earlier work

O=c1ccc2ccccc2o1 [Coumarin]
Release rate versus cap coat composition [1]: release much faster from a 100% PL75D coated shim than that from 100% TP coated shim
Volume of cold water in which one gram dissolves [2]: 400 mL
